The record followed here is patent US20180327396A1, “NOVEL PYRIDINE DERIVATIVES” (Hoffmann-La Roche Inc., priority 2014, published 2018).

The target of the first experiment is T1, human CB2 receptors (Homo sapiens, UniProt P34972).
T1 construct: expressed in transfected cells; host or cells: CHO cells
T1 sequence (P34972 whole entry): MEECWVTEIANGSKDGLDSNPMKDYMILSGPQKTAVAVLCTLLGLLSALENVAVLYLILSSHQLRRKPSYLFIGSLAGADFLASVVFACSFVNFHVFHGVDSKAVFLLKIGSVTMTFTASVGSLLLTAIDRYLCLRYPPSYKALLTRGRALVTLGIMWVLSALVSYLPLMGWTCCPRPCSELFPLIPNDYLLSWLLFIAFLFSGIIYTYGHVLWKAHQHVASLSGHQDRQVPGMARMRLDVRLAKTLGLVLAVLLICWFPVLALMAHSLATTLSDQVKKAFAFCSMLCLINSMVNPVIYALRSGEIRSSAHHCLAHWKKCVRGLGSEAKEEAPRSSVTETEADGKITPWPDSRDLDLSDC
Kind of experiment: cAMP assay. Type of experiment: cell-based.
Conditions: not given
The method, then: CHO cells expressing human CB1 or CB2 receptors are seeded 17-24 hours prior to the experiment 50.000 cells per well in a black 96 well plate with flat clear bottom (Corning Costar #3904) in DMEM (Invitrogen No. 31331), 1× HT supplement, with 10% fetal calf serum and incubated at 5% CO2 and 37° C. in a humidified incubator. The growth medium was exchanged with Krebs Ringer Bicarbonate buffer with 1 mM IBMX and incubated at 30° C. for 30 min. Compounds were added to a final assay volume of 100 μl and incubated for 30 min at 30° C. Using the cAMP-Nano-TRF detection kit the assay (Roche Diagnostics) was stopped by the addition of 50 μl lysis reagent (Tris, NaCl, 1.5% Triton X100, 2.5% NP40, 10% NaN3) and 50 μl detection solutions (20 μM mAb Alexa700-cAMP 1:1, and 48 μM Ruthenium-2-AHA-cAMP) and shaken for 2 h at room temperature. The time-resolved energy transfer is measured by a TRF reader (Evotec Technologies GmbH), equipped with a ND:YAG laser as excitation source. The plate is measured twice with the excitation at 355 nm and at the emission with a delay of 100 ns and a gate of 100 ns, total exposure time 10 s at 730 (bandwidth 30 nm) or 645 nm (bandwidth 75 nm), respectively. The FRET signal is calculated as follows: FRET=T730−Alexa730−P(T645−B645) with P=Ru730−B730/Ru645−B645, where T730 is the test well measured at […], T645 is the test well measured at 645 nm, B730 and B645 are the buffer controls at 730 nm and 645 nm, respectively. cAMP content is determined from the function of a standard curve spanning from 10 μM to 0.13 nM cAMP.
EC50 values were determined using Activity Base analysis (ID Business Solution, Limited). The EC50 values for a wide range of cannabinoid agonists generated from this assay for reference compounds were in agreement with the values published in the scientific literature.
(In general: cAMP levels reflect the balance of adenylyl cyclase and phosphodiesterase activity.)
As usually defined, the EC50 is the concentration that produces a half-maximal response. With `CC(C)(Cc1nnc(C2CC2)o1)NC(=O)c1cccc(-c2ccc(Cl)cc2)n1` [Example 1, 6-(4-Chlorophenyl)-N-[1-(5-cyclopropyl-1,3,4-oxadiazol-2-yl)-2-methylpropan-2-yl]pyridine-2-carboxamide], the midpoint of the response, the EC50, lay at 497 nM.

`CC(C)(Cc1nnc(-c2ccccc2)o1)NC(=O)c1cccc(OCC(F)(F)F)n1` [Example 3, N-[2-Methyl-1-(5-phenyl-1,3,4-oxadiazol-2-yl)propan-2-yl]-6-(2,2,2-trifluoroethoxy)pyridine-2-carboxamide] came in with an EC50 of 132 nM.

`CC(C)(Cc1nc(-c2ccccc2)no1)NC(=O)c1cccc(-c2ccc(Cl)cc2)n1` [Example 4, 6-(4-Chlorophenyl)-N-[2-methyl-1-(3-phenyl-1,2,4-oxadiazol-5-yl)propan-2-yl]pyridine-2-carboxamide] yielded a concentration giving a half-maximal response (EC50) of 339 nM.

For `CC(C)(Cc1nnc(-c2ccccc2)o1)NC(=O)c1cccc(-c2cccc(Cl)c2)n1` [Example 6, 6-(3-Chlorophenyl)-N-[2-methyl-1-(5-phenyl-1,3,4-oxadiazol-2-yl)propan-2-yl]pyridine-2-carboxamide], the EC50 came out at 182 nM.

`CC(C)(Cc1nc(C2CC2)no1)NC(=O)c1cccc(-c2cccc(Cl)c2)n1` [Example 7, 6-(3-Chlorophenyl)-N-[1-(3-cyclopropyl-1,2,4-oxadiazol-5-yl)-2-methylpropan-2-yl]pyridine-2-carboxamide] returned an EC50 of 244 nM.

Regarding `CC(C)(Cc1nnc(-c2ccccc2)o1)NC(=O)c1ccc(Nc2ccc(Cl)cc2Cl)c(Cl)n1` [Example 9, 6-Chloro-5-(2,4-dichloroanilino)-N-[2-methyl-1-(5-phenyl-1,3,4-oxadiazol-2-yl)propan-2-yl]pyridine-2-carboxamide], the midpoint of the response, the EC50, lay at 36.7 nM.

As for `CC(C)(Cc1nnc(-c2ccccc2)o1)NC(=O)c1ccc(C2CC2)c(-c2ccc(Cl)cc2)n1` [Example 10, 6-(4-Chlorophenyl)-5-cyclopropyl-N-[2-methyl-1-(5-phenyl-1,3,4-oxadiazol-2-yl)propan-2-yl]pyridine-2-carboxamide], a half-maximal response (EC50) required 265 nM.

`COCCOc1cccc(C(=O)NC(C)(C)Cc2nc(-c3ccccc3)no2)n1` [Example 11, 6-(2-Methoxyethoxy)-N-[2-methyl-1-(3-phenyl-1,2,4-oxadiazol-5-yl)propan-2-yl]pyridine-2-carboxamide] showed an EC50 of 573 nM.

With `CC(C)(Cc1nnc(C2CCC2)o1)NC(=O)c1cccc(-c2cccc(Cl)c2)n1` [Example 13, 6-(3-Chlorophenyl)-N-[1-(5-cyclobutyl-1,3,4-oxadiazol-2-yl)-2-methylpropan-2-yl]pyridine-2-carboxamide], the EC50 worked out at 294 nM.

As for `CC(C)(NC(=O)c1cccc(-c2ccc(Cl)cc2Cl)n1)c1nnc(-c2ccccc2)o1` [Example 14, 6-(2,4-Dichlorophenyl)-N-[2-(5-phenyl-1,3,4-oxadiazol-2-yl)propan-2-yl]pyridine-2-carboxamide], the EC50 is 227 nM.

In the case of `Cc1nnc(C(C)(C)NC(=O)c2cccc(-c3ccc(Cl)cc3Cl)n2)o1` [Example 15, 6-(2,4-Dichlorophenyl)-N-[2-(5-methyl-1,3,4-oxadiazol-2-yl)propan-2-yl]pyridine-2-carboxamide], the EC50 was 107 nM.

Molecule `COCCOCC(C)(C)c1cc(NC(=O)c2ccc(N3CC(F)(F)C3)c(OCC3CC3)n2)on1` [Example 16, 6-(Cyclopropylmethoxy)-5-(3,3-difluoroazetidin-1-yl)-N-[3-[1-(2-methoxyethoxy)-2-methylpropan-2-yl]-1,2-oxazol-5-yl]pyridine-2-carboxamide] displayed a 50% effective concentration (EC50) of 218 nM.

`CC(C)(CO)n1cc(NC(=O)c2ccc(C3CC3)c(OCC3CC3)n2)cn1` [Example 17, 5-Cyclopropyl-6-(cyclopropylmethoxy)-N-[1-(1-hydroxy-2-methylpropan-2-yl)pyrazol-4-yl]pyridine-2-carboxamide] came in with an EC50 of 224 nM.

Regarding `COCCOCC(C)(C)c1cc(NC(=O)c2ccc(C3CC3)c(OCC3CC3)n2)on1` [Example 18, 5-Cyclopropyl-6-(cyclopropylmethoxy)-N-[3-[1-(2-methoxyethoxy)-2-methylpropan-2-yl]-1,2-oxazol-5-yl]pyridine-2-carboxamide], the EC50 was found to be 35.2 nM.

The molecule `CC(C)(CO)c1cc(NC(=O)c2ccc(C3CC3)c(OCC3CC3)n2)on1` [Example 19, 5-Cyclopropyl-6-(cyclopropylmethoxy)-N-[3-(1-hydroxy-2-methylpropan-2-yl)-1,2-oxazol-5-yl]pyridine-2-carboxamide] gave an EC50 of 139 nM.

On to `CCOCCOCC(C)(C)c1cc(NC(=O)c2ccc(C3CC3)c(OCC3CC3)n2)on1` [Example 20, 5-Cyclopropyl-6-(cyclopropylmethoxy)-N-[3-[1-(2-ethoxyethoxy)-2-methylpropan-2-yl]-1,2-oxazol-5-yl]pyridine-2-carboxamide], for which a half-maximal effect (EC50) was put at 22.5 nM.

`O=C(NC12CC3CC(CC(O)(C3)C1)C2)c1ccc(N2CC(F)(F)C2)c(OCC2CC2)n1` [Example 21, 6-(Cyclopropylmethoxy)-5-(3,3-difluoroazetidin-1-yl)-N-(3-hydroxy-1-adamantyl)pyridine-2-carboxamide] displayed an EC50 of 81.6 nM.

The molecule `CC(C)(C)OC(=O)N1CCOC(CNC(=O)c2ccc(C3CC3)c(Cc3ccc(F)cc3)n2)C1` (stereo not shown) [Example 22, tert-Butyl 2-[[[5-cyclopropyl-6-[(4-fluorophenyl)methyl]pyridine-2-carbonyl]amino]methyl]morpholine-4-carboxylate] gave an EC50 of 101 nM.

`NC(=O)[C@H]1CSCCN1C(=O)c1cnc(C2CC2)c(OCC2CC2)n1` [Example 23, (+)-4-[5-Cyclopropyl-6-(cyclopropylmethoxy)pyrazine-2-carbonyl]thiomorpholine-3-carboxamide]: the EC50 was found to be 589 nM.

As to `CC(C)(COC1CCCCO1)c1cc(NC(=O)c2cnc(C3CC3)c(OCC3CC3)n2)on1` (stereo not shown) [Example 24, 5-Cyclopropyl-6-(cyclopropylmethoxy)-N-[3-[2-methyl-1-(oxan-2-yloxy)propan-2-yl]-1,2-oxazol-5-yl]pyrazine-2-carboxamide], the EC50 came out at 75.2 nM.

In turn, `CC(C)(CO)c1cc(NC(=O)c2cnc(C3CC3)c(OCC3CC3)n2)on1` [Example 25, 5-Cyclopropyl-6-(cyclopropylmethoxy)-N-[3-(1-hydroxy-2-methylpropan-2-yl)-1,2-oxazol-5-yl]pyrazine-2-carboxamide] registered an EC50 of 51.6 nM.

`CC(C)(CN=[N+]=[N-])c1cc(NC(=O)c2cnc(C3CC3)c(OCC3CC3)n2)on1` [Example 26, N-[3-(1-Azido-2-methylpropan-2-yl)-1,2-oxazol-5-yl]-5-cyclopropyl-6-(cyclopropylmethoxy)pyrazine-2-carboxamide] came in with an EC50 of 12.4 nM.

The experiment is the same for the next values; noted with them: CHO cells expressing human CB2 receptors; read-out: cAMP assay human CB2 EC50.
Regarding `CC(C)(Cc1nnc(-c2ccccc2)o1)NC(=O)c1cccc(-c2ccc(Cl)cc2)n1` [Example 2, 6-(4-Chlorophenyl)-N-[2-methyl-1-(5-phenyl-1,3,4-oxadiazol-2-yl)propan-2-yl]pyridine-2-carboxamide], the EC50 came out at 165 nM.

Regarding `CC(C)(Cc1nc(-c2ccccc2)no1)NC(=O)c1cccc(OCC(F)(F)F)n1` [Example 5, N-[2-Methyl-1-(3-phenyl-1,2,4-oxadiazol-5-yl)propan-2-yl]-6-(2,2,2-trifluoroethoxy)pyridine-2-carboxamide], the EC50 was determined as 554 nM.

On to `CC(C)(Cc1nc(-c2ccccc2)no1)NC(=O)c1cccc(-c2cccc(Cl)c2)n1` [Example 8, 6-(3-Chlorophenyl)-N-[2-methyl-1-(3-phenyl-1,2,4-oxadiazol-5-yl)propan-2-yl]pyridine-2-carboxamide], for which the EC50 stood at 194 nM.

`CC(C)(Cc1nc(-c2ccccc2)no1)NC(=O)c1cccc(N2CCCC2=O)n1` [Example 12, N-[2-Methyl-1-(3-phenyl-1,2,4-oxadiazol-5-yl)propan-2-yl]-6-(2-oxopyrrolidin-1-yl)pyridine-2-carboxamide]: the EC50 was 662 nM.

Regarding `CC(C)(Cc1nnc(-c2ccc(F)cc2)o1)NC(=O)c1ccc(N2CC(F)(F)C2)c(OCC2CC2)n1` [Example 27, 6-(Cyclopropylmethoxy)-5-(3,3-difluoroazetidin-1-yl)-N-[1-[5-(4-fluorophenyl)-1,3,4-oxadiazol-2-yl]-2-methylpropan-2-yl]pyridine-2-carboxamide], the EC50 turned out to be 2890 nM.

In the case of `CC(C)(Cc1nnc(-c2ccc(F)cc2)o1)NC(=O)c1ccc(C2CCCC2)c(OCC2CC2)n1` [Example 28, 5-Cyclopentyl-6-(cyclopropylmethoxy)-N-[1-[5-(4-fluorophenyl)-1,3,4-oxadiazol-2-yl]-2-methylpropan-2-yl]pyridine-2-carboxamide], the EC50 turned out to be 2760 nM.
